Source: article PMC12059162 (Scientific Reports, 2025)
Marks after values point to notes of the source that are not given here.

What was measured:
MIA PaCa-2 cells [1] = test: alamarBlue cell viability; details: Homo sapiens, MIA PaCa-2, 72 h; for viability at 0.5 µM / viability at 10 µM / viability at 25 µM: read-out: Viability (%) after 72-h treatment
p53 = test: qPCR apoptotic gene expression in PANC-1 cells; details: PANC-1, 25 µM, normalised to DMSO control
PANC-1 cells [2] = test: Cell cycle analysis (PI, flow cytometry); details: for Effect on cell cycle: PANC-1, 0.5 µM, 48 h; for Increase in cell number in the G2/M phase: PANC-1, 10 and 25 µM, 72 h
PANC-1 cells [3] = test: Holographic microscopy morphometry (HoloMonitor M4); type: cell-based, human; details: 72 h
Method: To follow the morphometric changes, a holographic transmission microscope (HoloMonitor M4; Phase Holographic Imaging AB, Lund, Sweden) was used, which uses a laser to produce 3D images of the cells[51],[52]. This […] imaging technique allows us to monitor cell morphological changes in real-time. First, the cells were seeded at a concentration of 3.5 × 10^5 cells/flask/4000 µL cell culture medium. […] At least 5 images were taken from each culture dish, taking care to assess different fields of view. These images were evaluated using the microscope software (Hstudio M4). We assessed the average area and the average optical thickness of the cells.

phospho-p53 (S15) = test: Human Apoptosis Array in PANC-1 cells; details: PANC-1, 0.5 µM, 72 h
EBC-1 cells = test: alamarBlue cell viability; details: for viability at 0.5 µM: read-out: Viability (%) after 72-h treatment, EBC-1, 0.5 μM, 72 h, mean ± SD (n = 3); for viability at 10 µM: read-out: Viability (%) after 72-h treatment, EBC-1, 10 μM, 72 h, mean ± SD (n = 3); for viability at 25 µM: read-out: Viability (%) after 72-h treatment, EBC-1, 25 μM, 72 h, mean ± SD (n = 3)
DR4 = test: Human Apoptosis Array in PANC-1 cells; details: PANC-1, 0.5 µM, 72 h
pro-caspase-3 = test: Human Apoptosis Array in PANC-1 cells; details: PANC-1, 0.5 µM, 72 h
COLO-205 cells = test: alamarBlue cell viability; details: Homo sapiens, COLO 205, 72 h; for viability at 0.5 µM / viability at 10 µM / viability at 25 µM: read-out: Viability (%) after 72-h treatment
PANC-1 cells [4] = test: xCELLigence SP impedimetric cell viability; details: for IC50 / viability at 0.5 µM / viability at 10 µM / viability at 25 µM: Homo sapiens, PANC-1, 72 h; for IC50: read-out: IC50 values (μM) 72 hours; for viability at 0.5 µM: read-out: Viability (%) after 72-h treatment, PANC-1, 0.5 μM, 72 h, mean ± SD (n = 3); for viability at 10 µM: read-out: Viability (%) after 72-h treatment, PANC-1, 10 μM, 72 h, mean ± SD (n = 3); for viability at 25 µM: read-out: Viability (%) after 72-h treatment, PANC-1, 25 μM, 72 h, mean ± SD (n = 3)
TRAIL = test: qPCR apoptotic gene expression in PANC-1 cells; details: PANC-1, 25 µM
PANC-1 cells [5] = test: Annexin-V/7AAD early and late apoptosis flow cytometry; type: cell-based, human; details: PANC-1, 0.5 µM, 72 h; for Ratio of late apoptotic cells: control 0.9%; for Ratio of AnnexinV+ and 7AAD- (early apoptotic) cells: control 21.1%
Method: For apoptosis measurements, Annexin-V positive/7AAD (7-Aminoactinomycin D) negative, early apoptotic and Annexin-V/ 7AAD double positive, late apoptotic cells were differentiated using a BD FACSCalibur (BD FACSCalibur, Becton-Dickinson, San Jose, CA, USA) flow cytometer[49],[50]. […] After 24, 48, and 72 h treatment, cells were harvested with 300 µL TrypLE (Sigma Ltd. St. Louis, MO, USA). Fresh cell culture medium was then added to stop the effect of TrypLE and the harvested cells were centrifuged for 5 min (300 g). Then, the supernatant was removed, and cells were resuspended in 300 µL of Annexin binding buffer (Sony Biotechnology, Weybridge, UK). For labelling, 3–3 µL of Annexin-V-FITC (Sony Biotechnology, Weybridge, UK) and 7AAD (Sony Biotechnology, Weybridge, UK) were added, followed by 10 min incubation at room temperature in the dark. For flow cytometric analysis (BD FACSCalibur, Becton–Dickinson, San Jose, CA, USA), a minimum of 10^4 cells/sample was measured. Annexin-V was detected using the FL-1 channel (530/30), and 7AAD was detected using the FL-3 channel (670 LP). In each treatment group, 3 parallel samples were analysed. The results were evaluated using Flowing Software 2.5.1 (Turku Centre of Biotechnology, Turku, Finland).

A2058 cells = test: alamarBlue cell viability; details: Homo sapiens, A2058, 72 h; for IC50: read-out: IC50 values (μM) 72 hours; for viability at 0.5 µM / viability at 10 µM / viability at 25 µM: read-out: Viability (%) after 72-h treatment
[6] = alamarBlue cell viability, cardiotoxicity; details: mouse, HL-1 cardiomyocytes
[7] = alamarBlue cell viability, healthy cells; details: human, NHDF cells
NHDF cells = test: alamarBlue cell viability, healthy cells; details: Homo sapiens, NHDF, 72 h, read-out: IC50 values (μM) 72 hours
cIAP-1 = test: Human Apoptosis Array in PANC-1 cells; details: PANC-1, 0.5 µM, 72 h
phospho-p53 (S46) = test: Human Apoptosis Array in PANC-1 cells; details: PANC-1, 0.5 µM, 72 h
MIA PaCa-2 cells [8] = test: Cell cycle analysis (PI, flow cytometry); details: MIA PaCa-2, 0.5 µM; for Effect on cell cycle: 48 h
HSP60 = test: Human Apoptosis Array in PANC-1 cells; details: PANC-1, 0.5 µM, 72 h
DR5 [9] = test: qPCR apoptotic gene expression in PANC-1 cells; details: PANC-1, 25 µM
DR5 [10] = test: Human Apoptosis Array in PANC-1 cells; details: PANC-1, 0.5 µM, 72 h
cytochrome-c = test: Human Apoptosis Array in PANC-1 cells; details: PANC-1, 0.5 µM, 72 h
[11] = read-out: IC50 values (μM) 72 hours

O=C1C2=C(CCN(Cc3ccccc3)C2)N2CCN=C2N1Cc1ccc(F)cc1 [TBP-134] showed an IC50 (MIA PaCa-2 cells [1]; [11]) of 0.67 µM, a viability at 0.5 µM (MIA PaCa-2 cells [1]) of 48.9 ± 2.9% and a viability at 10 µM (MIA PaCa-2 cells [1]) of 65 ± 4.9%. The viability at 25 µM (MIA PaCa-2 cells [1]) was 59 ± 5.5%, the “p53 mRNA expression” value (p53; 48 h) was 3.7 fold and the “Effect on cell cycle” value (PANC-1 cells [2]) was “strong G2/M phase arrest”. The “Increase in cell number in the G2/M phase” value (PANC-1 cells [2]) was 2.2 fold, the Average cell area (PANC-1 cells [3]; PANC-1, 25 µM) was 376 µm^2 and the “Average cell area, fold decrease vs DMSO” value (PANC-1 cells [3]; PANC-1, 25 µM) was 1.7 fold. The “phospho-p53 (S15) protein level” value (phospho-p53 (S15)) was “decrease”, the “Viability (%) after 72-h treatment” value (EBC-1 cells; EBC-1, 0.5 μM, 72 h, mean ± SD (n = 3), 0.5 µM) was 52.3 ± 1.5^z % and the viability at 0.5 µM (EBC-1 cells; Homo sapiens, EBC-1, 72 h) was 52.2%. The viability at 10 µM (EBC-1 cells; Homo sapiens, EBC-1, 72 h) was 51.7 ± 0.7%, the viability at 25 µM (EBC-1 cells; Homo sapiens, EBC-1, 72 h) was 50.5 ± 2% and the DR4 protein level (DR4) was “significant increase”. For the same molecule, the pro-caspase-3 protein level (pro-caspase-3) was “decrease”, the IC50 (COLO-205 cells; [11]) was 0.25 µM and the viability at 0.5 µM (COLO-205 cells) was 45.5 ± 1.3%. For the same molecule, the viability at 10 µM (COLO-205 cells) was 48.8 ± 1.6%, the viability at 25 µM (COLO-205 cells) was 54.3 ± 0.6% and the IC50 (PANC-1 cells [4]) was 0.35 µM. It also gave a viability at 0.5 µM (PANC-1 cells [4]) of 13.4%, a viability at 10 µM (PANC-1 cells [4]) of 7.4 ± 0.3% and a viability at 25 µM (PANC-1 cells [4]) of 6.1 ± 0.9%. For the same molecule, the “Viability (%) after 72-h treatment” value (PANC-1 cells [4]; PANC-1, 0.5 μM, 72 h, mean ± SD (n = 3), 0.5 µM) was 13.2 ± 1.4^z %, the “TRAIL induction (mRNA)” value (TRAIL; any of the time points (3-48 h)) was “not detected” and the “Early apoptotic cells, fold increase” value (PANC-1 cells [5]) was 2.1 fold. The “Late apoptotic cells, fold increase” value (PANC-1 cells [5]) was 4.2 fold, the “Ratio of late apoptotic cells” value (PANC-1 cells [5]) was 3.8% and the “Ratio of AnnexinV+ and 7AAD- (early apoptotic) cells” value (PANC-1 cells [5]) was 43.8%. It also gave an IC50 (A2058 cells) of 0.34 µM, a viability at 0.5 µM (A2058 cells) of 51.4 ± 2.4% and a viability at 10 µM (A2058 cells) of 47.7 ± 3.5%. The viability at 25 µM (A2058 cells) was 44.7 ± 2.8%, the viability at 72 h, 0.5 µM [6] was 89.9 ± 5.2% and the viability at 72 h, 10 µM [6] was 88.4 ± 5%. The viability at 72 h, 25 µM [6] was 82 ± 2.3%, the viability at 72 h, 0.5 µM [7] was 61.5 ± 0.5% and the viability at 72 h, 10 µM [7] was 46.2 ± 3.4%. The viability at 72 h, 25 µM [7] was 48.3 ± 1.2%, the IC50 (NHDF cells) was 1.55 µM and the cIAP-1 protein level (cIAP-1) was “undetectable”. The “phospho-p53 (S46) protein level” value (phospho-p53 (S46)) was “decrease”, the “Effect on cell cycle” value (MIA PaCa-2 cells [8]) was “strong G2/M phase arrest” and the “subG1 phase (percentage of cells)” value (MIA PaCa-2 cells [8]; 72 h, control 5.6%) was 20.8%. For the same molecule, the HSP60 protein level (HSP60) was “significant increase” and the “DR5 mRNA expression” value (DR5 [9]; 12 h, normalised to DMSO control) was 2.3 fold.
O=C1C2=C(CCN(Cc3ccccc3)C2)N2CCN=C2N1Cc1cccc(F)c1 [TBP-135] gave a viability at 0.5 µM (MIA PaCa-2 cells [1]) of 63.5 ± 2.6%, a viability at 10 µM (MIA PaCa-2 cells [1]) of 62.7 ± 7.8% and a viability at 25 µM (MIA PaCa-2 cells [1]) of 65.5 ± 7.9%. For the same molecule, the DR5 protein level (DR5 [10]) was “significantly increased”, the “p53 mRNA expression” value (p53; 24 h) was 2.9 fold and the “Effect on cell cycle” value (PANC-1 cells [2]) was “G1 phase block”. The “Increase in cell number in the G2/M phase” value (PANC-1 cells [2]) was 2.2 fold, the “Average cell area, fold decrease vs DMSO” value (PANC-1 cells [3]; PANC-1, 0.5 µM) was 1.9 fold and the “Average optical thickness, fold increase vs DMSO” value (PANC-1 cells [3]; PANC-1, 0.5 µM) was 4.1 fold. The Average optical thickness (PANC-1 cells [3]; PANC-1, 0.5 µM, DMSO 1.45 μm) was 5.9 μm, the Average cell area (PANC-1 cells [3]; PANC-1, 0.5 µM, DMSO 630 µm^2) was 338.5 µm^2 and the “phospho-p53 (S15) protein level” value (phospho-p53 (S15)) was “significantly increased”. For the same molecule, the IC50 (EBC-1 cells; Homo sapiens, EBC-1, 72 h, read-out: IC50 values (μM) 72 hours) was 2.5 µM, the viability at 0.5 µM (EBC-1 cells; Homo sapiens, EBC-1, 72 h) was 66.6 ± 4.1% and the viability at 10 µM (EBC-1 cells; Homo sapiens, EBC-1, 72 h) was 71.8 ± 31.1%. For the same molecule, the viability at 25 µM (EBC-1 cells; Homo sapiens, EBC-1, 72 h) was 48 ± 4%, the DR4 protein level (DR4) was “significantly increased” and the pro-caspase-3 protein level (pro-caspase-3) was “significantly increased”. It also gave a viability at 0.5 µM (COLO-205 cells) of 74.7 ± 0.6%, a viability at 10 µM (COLO-205 cells) of 52.6 ± 4.1% and a viability at 25 µM (COLO-205 cells) of 54.2 ± 3.2%. It also gave an IC50 (PANC-1 cells [4]) of 1.8 µM, a viability at 0.5 µM (PANC-1 cells [4]) of 106 ± 2.4% and a viability at 10 µM (PANC-1 cells [4]) of 8.8 ± 0.1%. The viability at 25 µM (PANC-1 cells [4]) was 9.2 ± 4.6%, the “TRAIL mRNA expression” value (TRAIL; 3 h, normalised to DMSO control) was 2.4 fold and the “Early apoptotic cells, fold increase” value (PANC-1 cells [5]) was 2.5 fold. For the same molecule, the “Late apoptotic cells, fold increase” value (PANC-1 cells [5]) was 3.5 fold, the “Ratio of late apoptotic cells” value (PANC-1 cells [5]) was 3.2% and the “Ratio of AnnexinV+ and 7AAD- (early apoptotic) cells” value (PANC-1 cells [5]) was 53.5%. The IC50 (A2058 cells) was 1.75 µM, the viability at 0.5 µM (A2058 cells) was 74.9 ± 1.1% and the viability at 10 µM (A2058 cells) was 47 ± 4.7%. The viability at 25 µM (A2058 cells) was 46.8 ± 2.9%, the viability at 72 h, 0.5 µM [6] was 98.8 ± 1.5% and the viability at 72 h, 10 µM [6] was 86.8 ± 3.2%. For the same molecule, the viability at 72 h, 25 µM [6] was 88.3 ± 2.8%, the viability at 72 h, 0.37 µM [7] was 111 ± 2.9% and the viability at 72 h, 8.6 µM [7] was 65.9 ± 1.8%. The viability at 72 h, 25 µM [7] was 71.4 ± 12.3%, the cytochrome-c protein level (cytochrome-c) was “significantly decreased” and the cIAP-1 protein level (cIAP-1) was “significantly increased”. The “phospho-p53 (S46) protein level” value (phospho-p53 (S46)) was “significantly increased”, the “Effect on cell cycle” value (MIA PaCa-2 cells [8]) was “did not affect” and the HSP60 protein level (HSP60) was “significantly increased”. The “DR5 mRNA expression” value (DR5 [9]; 3 h) was “significantly upregulated” and the “DR5 mRNA expression” value (DR5 [9]; 24 h, normalised to DMSO control) was 5.9 fold.
